How the values were obtained:
purple nutsedge = assay: Test B pre/postemergence purple nutsedge; type: in vivo, Cyperus rotundus
How it was run: (§1)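 Response is a visual 0-to-10 score relative to untreated plants, where 0 means no effect and 10 means complete control, taken twelve to sixteen days after application. Treatments went onto soil at planting and onto foliage of 1- to 4-leaf plants, using a surfactant-containing non-phytotoxic solvent.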

bamyardgrass = assay: Test B flood test barnyardgrass; type: in vivo, Echinochloa crus-galli
How it was run: (§2)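 Each value is a visual injury score relative to controls, with 10 meaning complete control and 0 no effect. Evaluation took place twelve to sixteen days after the 2-leaf-stage plants were treated and kept in the greenhouse.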

crabgrass = assay: Test B pre/postemergence crabgrass; type: in vivo, Digitaria sanguinalis
How it was run: as §1

rape = assay: Test B pre/postemergence rape; type: in vivo, Brassica napus
How it was run: as §1

bedstraw = assay: Test B pre/postemergence bedstraw; type: in vivo, Galium aparine
How it was run: as §1

surinam grass = assay: Test B pre/postemergence surinam grass; type: in vivo, Brachiaria decumbens
How it was run: as §1

pigweed = assay: Test B pre/postemergence pigweed; type: in vivo, Amaranthus retroflexus
How it was run: as §1

wheat = assay: Test B pre/postemergence wheat; type: in vivo, Triticum aestivum
How it was run: as §1

rice = assay: Test B flood test rice; type: in vivo, Oryza sativa
How it was run: as §2

blackgrass = assay: Test B pre/postemergence blackgrass; type: in vivo, Alopecurus myosuroides
How it was run: as §1

cocklebur = assay: Test B pre/postemergence cocklebur; type: in vivo, Xanthium strumarium
How it was run: as §1

giant foxtail = assay: Test B pre/postemergence giant foxtail; type: in vivo, Setaria faberii
How it was run: as §1

corn = assay: Test B pre/postemergence corn; type: in vivo, Zea mays
How it was run: as §1

morningglory = assay: Test B pre/postemergence morningglory; type: in vivo, Ipomoea hederacea
How it was run: as §1

sugar beet = assay: Test B pre/postemergence sugar beet; type: in vivo, Beta vulgaris
How it was run: as §1

wild oat = assay: Test B pre/postemergence wild oat; type: in vivo, Avena fatua
How it was run: as §1

[1] = Preemergence, Rate 62 g/ha, scale of 0 to 10 where 0 is no effect and 10 is complete control
[2] = Preemergence, Rate 250 g/ha, scale of 0 to 10 where 0 is no effect and 10 is complete control
[3] = Preemergence, Rate 500 g/ha, scale of 0 to 10 where 0 is no effect and 10 is complete control
[4] = Rate 125 g/ha, Postemergence, scale of 0 to 10 where 0 is no effect and 10 is complete control
[5] = Rate 125 g/ha, Preemergence, scale of 0 to 10 where 0 is no effect and 10 is complete control
[6] = Rate 250 g/ha, Postemergence, scale of 0 to 10 where 0 is no effect and 10 is complete control
[7] = Rate 500 g/ha, Postemergence, scale 0 to 10, 0 no effect, 10 complete control
[8] = Pre-emergence, Rate 1000 g/ha, scale 0 to 10 (0 no effect, 10 complete control)
[9] = Rate 62 g/ha, headed Pre-emergence (flood test species), scale 0 to 10 (0 no effect, 10 complete control)
[10] = Rate 125 g/ha, Pre-emergence, flood test species, scale 0 to 10 where 0 is no effect and 10 is complete control
[11] = Rate 250 g/ha, Pre-emergence, flood-test species, scale 0 to 10, 0 is no effect, 10 is complete control
[12] = Rate 500 g/ha, Pre-emergence, flood test species, scale 0 to 10 (0 no effect, 10 complete control)
[13] = Rate 62 g/ha, Postemergence, scale of 0 to 10 where 0 is no effect and 10 is complete control

CCN(C(=O)n1oc(=O)n(N(C)C)c1=O)C1CCCCC1 [Compound 274]
Nutsedge plant response rating (purple nutsedge; [1]): 0 | Nutsedge plant response rating (purple nutsedge; [2]): 0 | Plant response rating, Nutsedge (purple nutsedge; [3]): 0 | Nutsedge plant response rating (purple nutsedge; [4]): 0 | Nutsedge plant response rating (purple nutsedge; [5]): 0 | Plant response rating, Nutsedge (purple nutsedge; [6]): 0 | Nutsedge plant response rating (purple nutsedge; [7]): 0 | Barnyardgrass plant response rating (bamyardgrass; [8]): 0 | Barnyardgrass plant response rating (bamyardgrass; [9]): 0 | Barnyardgrass plant response rating (bamyardgrass; [10]): 0 | Barnyardgrass plant response rating (bamyardgrass; [11]): 0 | Barnyardgrass plant response rating (bamyardgrass; [12]): 0 | Barnyardgrass plant response rating (bamyardgrass; Rate 2000 g/ha, Pre-emergence (as headed), scale 0 to 10, 0 no effect, 10 complete control): 0 | Crabgrass plant response rating (crabgrass; [1]): 0 | Crabgrass plant response rating (crabgrass; [2]): 1 | Plant response rating, Crabgrass (crabgrass; [3]): 5 | Crabgrass plant response rating (crabgrass; [4]): 0 | Crabgrass plant response rating (crabgrass; [5]): 0 | Plant response rating, Crabgrass (crabgrass; [6]): 0 | Crabgrass plant response rating (crabgrass; [7]): 0 | Rape plant response rating (rape; [1]): 0 | Rape plant response rating (rape; [2]): 0 | Plant response rating, Rape (rape; [3]): 0 | Rape plant response rating (rape; [4]): 0 | Rape plant response rating (rape; [5]): 0 | Plant response rating, Rape (rape; [6]): 0 | Rape plant response rating (rape; [7]): 0 | Bedstraw plant response rating (bedstraw; [1]): 0 | Bedstraw plant response rating (bedstraw; [2]): 0 | Plant response rating, Bedstraw (bedstraw; [3]): 0 | Bedstraw plant response rating (bedstraw; [13]): 0 | Bedstraw plant response rating (bedstraw; [4]): 0 | Bedstraw plant response rating (bedstraw; [5]): 0 | Plant response rating, Bedstraw (bedstraw; [6]): 0 | Bedstraw plant response rating (bedstraw; [7]): 0 | B. signalgrass plant response rating (surinam grass; [1]): 0 | B. signalgrass plant response rating (surinam grass; [2]): 0 | Plant response rating, B. signalgrass (surinam grass; [3]): 0 | B. signalgrass plant response rating (surinam grass; [13]): 0 | B. signalgrass plant response rating (surinam grass; [4]): 0 | B. signalgrass plant response rating (surinam grass; [5]): 0 | Plant response rating, B. signalgrass (surinam grass; [6]): 0 | B. signalgrass plant response rating (surinam grass; [7]): 0 | Redroot pigweed plant response rating (pigweed; [1]): 0 | Redroot pigweed plant response rating (pigweed; [2]): 0 | Plant response rating, Redroot pigweed (pigweed; [3]): 0 | Redroot pigweed plant response rating (pigweed; [4]): 0 | Redroot pigweed plant response rating (pigweed; [5]): 0 | Plant response rating, Redroot pigweed (pigweed; [6]): 1 | Redroot pigweed plant response rating (pigweed; [7]): 1 | Wheat plant response rating (wheat; [1]): 0 | Wheat plant response rating (wheat; [2]): 0 | Plant response rating, Wheat (wheat; [3]): 0 | Wheat plant response rating (wheat; [4]): 0 | Wheat plant response rating (wheat; [5]): 0 | Plant response rating, Wheat (wheat; [6]): 0 | Wheat plant response rating (wheat; [7]): 0 | Rice plant response rating (rice; [8]): 0 | Rice plant response rating (rice; [9]): 0 | Rice plant response rating (rice; [10]): 0 | Rice plant response rating (rice; [11]): 0 | Rice plant response rating (rice; [12]): 0 | Rice plant response rating (rice; Rate 2000 g/ha, Pre-emergence (as headed), scale 0 to 10): 0 | Blackgrass plant response rating (blackgrass; [1]): 0 | Blackgrass plant response rating (blackgrass; [2]): 0 | Plant response rating, Blackgrass (blackgrass; [3]): 0 | Blackgrass plant response rating (blackgrass; [13]): 0 | Blackgrass plant response rating (blackgrass; [4]): 0 | Blackgrass plant response rating (blackgrass; [5]): 0 | Plant response rating, Blackgrass (blackgrass; [6]): 0 | Blackgrass plant response rating (blackgrass; [7]): 0 | Cocklebur plant response rating (cocklebur; [1]): 0 | Cocklebur plant response rating (cocklebur; [2]): 0 | Plant response rating, Cocklebur (cocklebur; [3]): 0 | Cocklebur plant response rating (cocklebur; [13]): 0 | Cocklebur plant response rating (cocklebur; [4]): 0 | Cocklebur plant response rating (cocklebur; [5]): 0 | Plant response rating, Cocklebur (cocklebur; [6]): 0 | Cocklebur plant response rating (cocklebur; [7]): 0 | Giant foxtail plant response rating (giant foxtail; [1]): 0 | Giant foxtail plant response rating (giant foxtail; [2]): 6 | Plant response rating, Giant foxtail (giant foxtail; [3]): 9 | Giant foxtail plant response rating (giant foxtail; [4]): 0 | Giant foxtail plant response rating (giant foxtail; [5]): 3 | Plant response rating, Giant foxtail (giant foxtail; [6]): 0 | Giant foxtail plant response rating (giant foxtail; [7]): 0 | Corn plant response rating (corn; [1]): 0 | Corn plant response rating (corn; [2]): 0 | Plant response rating, Corn (corn; [3]): 0 | Corn plant response rating (corn; [13]): 0 | Corn plant response rating (corn; [4]): 0 | Corn plant response rating (corn; [5]): 0 | Plant response rating, Corn (corn; [6]): 0 | Corn plant response rating (corn; [7]): 0 | Morningglory plant response rating (morningglory; [1]): 0 | Morningglory plant response rating (morningglory; [2]): 0 | Plant response rating, Morningglory (morningglory; [3]): 0 | Morningglory plant response rating (morningglory; [4]): 0 | Morningglory plant response rating (morningglory; [5]): 0 | Plant response rating, Morningglory (morningglory; [6]): 0 | Morningglory plant response rating (morningglory; [7]): 0 | Sugarbeets plant response rating (sugar beet; [1]): 0 | Sugarbeets plant response rating (sugar beet; [2]): 0 | Plant response rating, Sugarbeets (sugar beet; [3]): 0 | Sugarbeets plant response rating (sugar beet; [4]): 0 | Sugarbeets plant response rating (sugar beet; [5]): 0 | Plant response rating, Sugarbeets (sugar beet; [6]): 0 | Sugarbeets plant response rating (sugar beet; [7]): 1 | Wild oats plant response rating (wild oat; [1]): 0 | Wild oats plant response rating (wild oat; [2]): 0 | Plant response rating, Wild oats (wild oat; [3]): 0 | Wild oats plant response rating (wild oat; [4]): 0 | Plant response rating, Wild oats (wild oat; [6]): 0 | Wild oats plant response rating (wild oat; [7]): 0

Source: patent US6737383B1, “Herbicidal oxadiazolidines” (priority 1999, dated 2004)
